Data: ChEMBL document CHEMBL3301361, “Experimental in vitro DMPK and physicochemical data on a set of publicly disclosed compounds”
≈ marks a conversion by molar mass, not a printed value.

What was measured:
physchem [1] = test: physchem
in vitro [2] = details: human
in vitro [3] = details: human, hepatocytes
in vitro [4] = details: human, plasma
in vitro [5] = details: hepatocytes
in vitro [6] = details: SD, HW or BN, rat, plasma
physchem [7] = details: pH 7.4 buffer
physchem [8] = details: octan-1-ol/water

Structure (SMILES)	pKa (physchem [1])	logD (physchem [8]; pH 7.4, LogD7.4)	further results
Cc1ccnc(NCc2c(O)ccc3ccccc23)c1	6.6		
c1ccc2c(CC3=NCCN3)cccc2c1 [NAPHAZOLINE]	10.3		
O=C(Cc1ccc(Cl)c(C(F)(F)F)c1)Nc1cccc2c(=O)n(CCO)ccc12			microsomal CLint (in vitro [2]; liver microsomes): < 3 µL/min/mg; hepatocyte CLint (in vitro [3]): 32 µL/min/1e6 cells; fraction unbound at 5 h (in vitro [4]; PPB): 0.0097; hepatocyte CLint (in vitro [5]): 11 µL/min/1e6 cells; fraction unbound at 5 h (in vitro [6]): 0.072
CC(C)(C)NS(=O)(=O)c1cncc(-c2ccc3nc(NC(=O)NCC(=O)N4CCOCC4)nn3c2)c1		0.96	solubility thermodynamic (physchem [7]): 53.7 µM (≈ 27.7 µg/mL); microsomal CLint (in vitro [2]; liver microsomes): 5 µL/min/mg; hepatocyte CLint (in vitro [3]): 3.39 µL/min/1e6 cells; hepatocyte CLint (in vitro [5]): 5 µL/min/1e6 cells; fraction unbound at 5 h (in vitro [6]): 0.535
C[C@H]1CN=C(N)c2sccc2O1	11		microsomal CLint (in vitro [2]; microsomes): 7 µL/min/mg
Cn1c([S+]([O-])Cc2ccccn2)nc2ccccc21 (stereo not drawn)	2.6		
NCC(Oc1cc(Cl)ccc1Cl)c1ccccc1 (stereo not drawn)	8.5		
NC1=NC(c2ccccc2)Nc2ccccc21 (stereo not drawn)	9.83		
Cc1ccnc(NCc2ccccc2O)c1	6.8	3.35	
Cc1nc2c(OCc3ccccc3)cccn2c1CC#N	5.6		
C[C@H]1CN(Cc2cc(Cl)ccc2OCC(=O)O)CCN1C(=O)Cc1ccc(F)cc1			microsomal CLint (in vitro [2]; microsomes): < 3 µL/min/mg; hepatocyte CLint (in vitro [3]): < 3 µL/min/1e6 cells; fraction unbound at 5 h (in vitro [4]): 0.0287; hepatocyte CLint (in vitro [5]): < 3 µL/min/1e6 cells; fraction unbound at 5 h (in vitro [6]): 0.0928
COc1ccc(OC)c(CNc2[nH]nc3cccc(Oc4ccccc4)c23)c1	3.8		microsomal CLint (in vitro [2]; liver microsomes): 11 µL/min/mg
COc1ccc2c3c1O[C@H]1C[C@@H](O)C=C[C@@]31CCN(C)C2 [GALANTAMINE]	8.21		
CC(C)(C)c1ccc(C(O)CCCN2CCC(C(O)(c3ccccc3)c3ccccc3)CC2)cc1 (stereo not drawn) [TERFENADINE]	8.8	3.99	solubility thermodynamic (physchem [7]): 5.4 µM (≈ 2.55 µg/mL); fraction unbound at 5 h (in vitro [4]; PPB): 0.0084
O=C(NCC1(O)CCCCCC1)c1cc(-n2ncc(=O)[nH]c2=O)ccc1Cl		0.26	microsomal CLint (in vitro [2]; liver microsomes): < 3 µL/min/mg; hepatocyte CLint (in vitro [3]): < 3 µL/min/1e6 cells; fraction unbound at 5 h (in vitro [4]; PPB): 0.24; hepatocyte CLint (in vitro [5]): < 3 µL/min/1e6 cells; fraction unbound at 5 h (in vitro [6]): 0.129
CC12CC3CC(C)(C1)CC(N)(C3)C2 [MEMANTINE]	10.7	0.06	
NC1=NC(c2ccc(F)cc2)Nc2cccc(F)c21 (stereo not drawn)	9		
Cc1ccc(C#N)c(S[C@H](CCN)c2ccccc2)n1	9.8		
Nc1ccc(OCC(=O)O)c(-c2ccccc2)c1	5.1		microsomal CLint (in vitro [2]; liver microsomes): < 3 µL/min/mg
COc1cccc2c1c(NS(=O)(=O)c1ccc(Cl)s1)nn2Cc1cccc(CNC(=O)[C@H]2COCCN2)c1			microsomal CLint (in vitro [2]; microsomes): 58.5 µL/min/mg; hepatocyte CLint (in vitro [3]): 16 µL/min/1e6 cells; fraction unbound at 5 h (in vitro [4]; PPB): 0.0156; hepatocyte CLint (in vitro [5]): 28 µL/min/1e6 cells; fraction unbound at 5 h (in vitro [6]): 0.0052
Cc1ncc([N+](=O)[O-])n1CCO [METRONIDAZOLE]	2.51	-0.11	

Structure (SMILES)	pKa (physchem [1])	logD (physchem [8]; pH 7.4, LogD7.4)	further results
C[C@]12CCC(=O)C=C1C=C[C@@H]1[C@@H]2CC[C@@]2(C)[C@H]1CC[C@@]21CCC(=O)O1 [CANRENONE]		3.2	microsomal CLint (in vitro [2]; liver microsomes): 14.4 µL/min/mg; hepatocyte CLint (in vitro [3]): 6.61 µL/min/1e6 cells; fraction unbound at 5 h (in vitro [4]; PPB): 0.0594; hepatocyte CLint (in vitro [5]): 45.7 µL/min/1e6 cells; fraction unbound at 5 h (in vitro [6]): 0.0383
c1ccc2c(c1)CCCC2C1=NCCN1 (stereo not drawn) [TETRAHYDROZOLINE]	10.6		
c1ccc(SCc2ccccn2)cc1	3.8		
Cc1nc(N)sc1C	6.3		
O=C(NCC12CC3CC(CC(C3)C1)C2)c1cc(CC2CCNCC2)ccc1Cl	10.1	1.49	fraction unbound at 5 h (in vitro [4]; PPB): 0.0872
c1ccc(CSc2nc3ccccc3o2)nc1	4.3		
NC1=NC(C2CC2)Cc2ccsc21 (stereo not drawn)	> 11		
CCOC(=O)N1CCC(Nc2cc(Cl)ccn2)CC1	5.3		
NC1=Nc2cccc3cccc(c23)N1	7.6		
CCOC(=O)N1CCC2(CC1)N=C(N)c1c(F)cccc1N2	9.1		
CCOC(=O)N1CCC2(CC1)N=C(N)c1c(Cl)cccc1N2	9		
NCCc1ccc(Cl)cc1	10.1		
CN(C(=O)Cc1ccc(S(=O)(=O)N(C)C)cc1)C1CCN(CCC(c2ccccc2)c2ccccc2)CC1	8.1		
CCOC(=O)N1CCC(Nc2cc(OC)ccn2)CC1	7.2		microsomal CLint (in vitro [2]; liver microsomes): 4 µL/min/mg
c1ccc(CSc2nc3ccccc3[nH]2)cc1	4.2		
CCC(CCNC)Oc1cc(Cl)ccc1C#N (stereo not drawn)	10.1	0.38	microsomal CLint (in vitro [2]; liver microsomes): < 3 µL/min/mg
NC(=O)NC(=O)C(Nc1ccc2c(c1)CCC2)c1ccccc1 (stereo not drawn)			microsomal CLint (in vitro [2]; liver microsomes): 27.5 µL/min/mg; logD (physchem [8]; pH 7.4): 3.3; hepatocyte CLint (in vitro [3]): 13.8 µL/min/1e6 cells; fraction unbound at 5 h (in vitro [4]): 0.03; hepatocyte CLint (in vitro [5]): 55 µL/min/1e6 cells; fraction unbound at 5 h (in vitro [6]): 0.0581
CC(=O)Nc1ccc(CNc2[nH]nc3ccnc(Oc4ccccc4)c23)cc1	3.2	3.03	microsomal CLint (in vitro [2]; liver microsomes): 12 µL/min/mg
COc1ccc(OC)c(C(O)CNC(=O)CN)c1 (stereo not drawn) [MIDODRINE]	7.59		
COc1cccc2c1c(NS(=O)(=O)c1ccc(Cl)s1)nn2Cc1cccc(CNC(=O)[C@@H]2COCCN2)c1		1.61	solubility thermodynamic (physchem [7]): 27.5 µM (≈ 15.8 µg/mL); microsomal CLint (in vitro [2]; microsomes): 40.5 µL/min/mg; hepatocyte CLint (in vitro [3]): 20 µL/min/1e6 cells; fraction unbound at 5 h (in vitro [4]; PPB): 0.016; hepatocyte CLint (in vitro [5]): 26 µL/min/1e6 cells; fraction unbound at 5 h (in vitro [6]): 0.0156
Cc1ccc(C)c(OCCCC(C)(C)C(=O)O)c1 [GEMFIBROZIL]		0.72	microsomal CLint (in vitro [2]; microsomes): 29.5 µL/min/mg; hepatocyte CLint (in vitro [3]): 66.1 µL/min/1e6 cells; fraction unbound at 5 h (in vitro [4]; PPB): 0.0023; hepatocyte CLint (in vitro [5]): > 150 µL/min/1e6 cells; fraction unbound at 5 h (in vitro [6]): 0.0153

Structure (SMILES)	pKa (physchem [1])	logD (physchem [8]; pH 7.4, LogD7.4)	further results
CNCC[C@@H](Oc1cc(C(F)(F)F)ccc1C#N)c1ccccc1	10.4	1.3	microsomal CLint (in vitro [2]; microsomes): < 3 µL/min/mg
Cc1ncc[nH]1	7.8		
NC1=NC(C2CC2)Cc2ccccc21 (stereo not drawn)	> 11		
CN(C)CCC=C1c2ccccc2COc2ccccc21 [DOXEPIN]	8.5	2.15	
c1ccc(CSc2nnc([C@@H]3CCCN3)o2)cc1	7.03		
CCc1ncc[nH]1	7.8		
CN1CCC(=C2c3ccccc3CC(=O)c3sccc32)CC1 [KETOTIFEN]	9		
COc1ccnc(NC2CCN(C(=O)c3ccccc3)CC2)c1	6.85	2.06	microsomal CLint (in vitro [2]; liver microsomes): < 3 µL/min/mg
O=C(CO)N1CCC(c2[nH]nc(-c3ccc(Cl)cc3F)c2-c2ccncn2)CC1		1.79	solubility thermodynamic (physchem [7]): 7.8 µM (≈ 3.24 µg/mL); microsomal CLint (in vitro [2]; microsomes): < 3 µL/min/mg; hepatocyte CLint (in vitro [3]): < 3 µL/min/1e6 cells; fraction unbound at 5 h (in vitro [4]; PPB): 0.253; hepatocyte CLint (in vitro [5]): < 3 µL/min/1e6 cells; fraction unbound at 5 h (in vitro [6]): 0.324
CC(C)(C)NS(=O)(=O)c1cncc(-c2ccc3nc(NC(=O)NCC(=O)N4CCCC4)nn3c2)c1		1.37	solubility thermodynamic (physchem [7]): 6.6 µM (≈ 3.3 µg/mL); microsomal CLint (in vitro [2]; microsomes): 5 µL/min/mg; hepatocyte CLint (in vitro [3]): 4.79 µL/min/1e6 cells; fraction unbound at 5 h (in vitro [4]; PPB): 0.329; hepatocyte CLint (in vitro [5]): < 3 µL/min/1e6 cells; fraction unbound at 5 h (in vitro [6]): 0.232
CCc1nc2c(C)cc(C)nc2[nH]1	5.5		
c1ccc(CC2=NCCN2)cc1 [TOLAZOLINE]	10.7		
NCCc1ccc([N+](=O)[O-])cc1	9.4		
CCN(CC)C(C)C(=O)c1ccccc1 (stereo not drawn) [DIETHYLPROPION]	8.8		logD (physchem [8]; pH 7.4): 1.18
CN(C)CCn1cnc2c1c(=O)n(C)c(=O)n2C [DIMETHAZAN]	7.5		
O=C(NCC12CC3CC(CC(C3)C1)C2)c1cc(OC2CCNCC2)ncc1Cl	9.1	1.56	
Cc1cc(N)nc(CCNC(=O)c2ccc(C#N)cc2)c1	7.1	1.62	solubility thermodynamic (physchem [7]): 64.6 µM (≈ 18.1 µg/mL)
N#Cc1ccc(C(=O)N2CCC3(CC2)N=C(N)c2c(F)cccc2N3)cc1	9	0.66	
Cc1ccnc(NCc2ccccc2)c1	7	3.08	
CCN(CC)CCNC(=O)c1ccc(NC(C)=O)cc1 [ACECAINIDE]	9.14		
NC1=NC(c2ccco2)Nc2c(F)ccc(F)c21 (stereo not drawn)	8.2	1.2	

Structure (SMILES)	pKa (physchem [1])	logD (physchem [8]; pH 7.4, LogD7.4)	further results
O=C(O)/C=C/c1cccnc1	4.4		
Cc1cc(C(C)(C)C)cc(C)c1CC1=NCCN1 [XYLOMETAZOLINE]	10.6		
N#Cc1ccc(Cl)cc1O[C@H](CCN)c1ccccc1	10.3	0.76	microsomal CLint (in vitro [2]; liver microsomes): 4 µL/min/mg
C=CCOc1ccccc1OCC(O)CNC(C)C (stereo not drawn) [OXPRENOLOL]	9.69	0.2	
NC1=NC(c2cccs2)Nc2cccc(F)c21 (stereo not drawn)	8.73	0.91	
CCOC(=O)N1CCC(Nc2ccccn2)CC1	6.6		
Cc1cc(C)nc(N)c1	7.7	0.85	
COc1ccnc(NC2CCN(C(=O)c3ccc(Cl)cc3)CC2)c1	7.2	2.82	
CCOC(=O)N1CCC2(CC1)N=C(N)c1sccc1N2	10.5		
N#Cc1ccc(C(=O)N2CCC3(CC2)N=C(N)c2c(F)ccc(F)c2N3)cn1	8.4	0.79	fraction unbound at 5 h (in vitro [4]; PPB): 0.134
CON(C)C(=O)c1c(Cn2c(C)nc(Cl)c2Cl)sc2c1c(=O)n(C)c(=O)n2CC(C)C	2.7	2.23	solubility thermodynamic (physchem [7]): 513 µM (≈ 250 µg/mL)
O=C(NCC12CC3CC(CC(C3)C1)C2)c1cc(OCCCNCCCO)ccc1Cl	9.5	1.41	microsomal CLint (in vitro [2]; liver microsomes): 27 µL/min/mg
COc1ccccc1CNc1cc(C)ccn1	7.1	3.28	
NC1=NC(c2ccco2)Nc2ccccc21 (stereo not drawn)	9.13		
Nc1nc2ccccc2[nH]1	7.2		microsomal CLint (in vitro [2]; liver microsomes): < 3 µL/min/mg
O=C(c1ccccc1)N1CCN(Cc2ccccc2)CC1	6.2		
O=C(O)COc1ccc(Cl)cc1CN1CCC(S(=O)(=O)c2ccccc2)CC1	7.8	0.48	
N#Cc1ccc(C(=O)N2CCC3(CC2)N=C(N)c2c(F)ccc(F)c2N3)cc1	8.15	0.86	fraction unbound at 5 h (in vitro [4]; PPB): 0.285
COc1ccc(CNc2cc(C)ccn2)c(O)c1	6.8		
Cc1ccnc(N)c1N	7.2		
CC(C)NCC(O)COc1ccc(CCOCC2CC2)cc1 (stereo not drawn) [BETAXOLOL]			microsomal CLint (in vitro [2]; microsomes): < 3 µL/min/mg; hepatocyte CLint (in vitro [3]): < 3 µL/min/1e6 cells; fraction unbound at 5 h (in vitro [4]; PPB): 0.725; hepatocyte CLint (in vitro [5]): 12 µL/min/1e6 cells; fraction unbound at 5 h (in vitro [6]): 0.409
